# Test results published in the Kinase Knowledgebase extract (Sharma et al. 2016).
# Target: ROCK2 (human) (UniProt O75116)
# Assay: Inhibition of ROCK2 Kinase Activity
# ROCK2 (human), sequence (O75116 whole entry, looked up): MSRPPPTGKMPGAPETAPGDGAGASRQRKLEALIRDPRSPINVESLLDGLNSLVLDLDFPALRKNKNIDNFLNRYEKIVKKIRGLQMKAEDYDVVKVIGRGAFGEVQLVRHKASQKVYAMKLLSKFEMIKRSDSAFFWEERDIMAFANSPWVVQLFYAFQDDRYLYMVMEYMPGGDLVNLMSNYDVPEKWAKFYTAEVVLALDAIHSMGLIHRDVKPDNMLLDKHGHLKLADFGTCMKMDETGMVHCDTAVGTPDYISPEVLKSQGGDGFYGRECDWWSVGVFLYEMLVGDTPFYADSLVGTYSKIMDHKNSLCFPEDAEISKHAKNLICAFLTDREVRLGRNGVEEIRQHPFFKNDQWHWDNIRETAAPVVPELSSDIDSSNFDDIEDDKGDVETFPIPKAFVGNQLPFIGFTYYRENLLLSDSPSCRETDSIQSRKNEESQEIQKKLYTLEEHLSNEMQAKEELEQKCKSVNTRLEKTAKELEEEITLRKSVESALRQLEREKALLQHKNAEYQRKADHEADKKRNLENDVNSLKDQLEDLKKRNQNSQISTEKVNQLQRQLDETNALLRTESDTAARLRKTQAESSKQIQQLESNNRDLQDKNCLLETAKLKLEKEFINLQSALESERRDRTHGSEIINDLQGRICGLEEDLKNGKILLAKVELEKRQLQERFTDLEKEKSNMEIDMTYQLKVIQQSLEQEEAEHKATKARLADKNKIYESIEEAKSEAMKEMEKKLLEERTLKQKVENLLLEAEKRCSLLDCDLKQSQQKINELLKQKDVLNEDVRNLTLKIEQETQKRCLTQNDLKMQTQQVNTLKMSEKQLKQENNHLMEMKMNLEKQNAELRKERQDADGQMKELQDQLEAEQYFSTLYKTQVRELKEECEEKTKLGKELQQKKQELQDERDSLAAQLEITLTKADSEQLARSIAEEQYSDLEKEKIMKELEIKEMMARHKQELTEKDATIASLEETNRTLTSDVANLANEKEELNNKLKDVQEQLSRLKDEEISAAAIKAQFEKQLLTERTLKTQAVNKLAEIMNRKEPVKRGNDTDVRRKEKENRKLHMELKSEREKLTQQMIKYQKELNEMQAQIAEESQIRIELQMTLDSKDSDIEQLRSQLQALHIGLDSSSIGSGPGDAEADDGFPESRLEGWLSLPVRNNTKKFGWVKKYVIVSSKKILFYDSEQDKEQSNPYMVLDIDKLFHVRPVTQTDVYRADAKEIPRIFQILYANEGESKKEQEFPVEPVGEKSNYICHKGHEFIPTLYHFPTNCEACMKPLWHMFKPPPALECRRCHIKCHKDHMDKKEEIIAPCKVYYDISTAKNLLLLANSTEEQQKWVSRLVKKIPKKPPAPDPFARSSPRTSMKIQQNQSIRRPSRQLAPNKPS
row,Structure (SMILES),IC50 [µM]
1,O=C(NCc1nc(-c2ccncc2)n[nH]1)c1ccccc1C(=O)c1ccc(F)cc1,> 5
2,O=C(NCc1nc(-c2ccncc2)n[nH]1)c1cc2ccccc2o1,> 5
3,CC(C)(C)OC(=O)NC(Cc1ccc(O)cc1)C(=O)NCc1nc(-c2ccncc2)n[nH]1 (configuration not stated),> 5
4,COC1=C(O)C=CC(C=CC(=O)NCc2nc(-c3c[nH]c4ncccc34)n[nH]2)=CC1,> 5
5,CC(C)(C)OC(=O)N1CCNC(C(=O)NCc2nc(-c3ccncc3)n[nH]2)C1 (configuration not stated),> 5
6,CCCc1ccc(C(=O)NCc2nc(-c3c[nH]c4ncccc34)n[nH]2)cc1,> 5
7,O=C(C=Cc1cccc(O)c1)NCc1nc(-c2c[nH]c3ncccc23)n[nH]1,> 5
8,CCCCCc1ccc(C(=O)NCc2nc(-c3c[nH]c4ncccc34)n[nH]2)cc1,> 5
9,O=C(NCc1nc(-c2ccncc2)n[nH]1)c1cc(F)c(F)cc1[N+](=O)[O-],> 5
10,O=C(NCc1nc(-c2ccncc2)n[nH]1)c1cnc(O)c(Cl)c1,> 5
11,O=Cc1ccccc1OCC(=O)NCc1nc(-c2c[nH]c3ncccc23)n[nH]1,> 5
12,Cc1cccc(CCC(=O)NCc2nc(-c3c[nH]c4ncccc34)n[nH]2)c1,> 5
13,O=C(CCc1cccc(Br)c1)NCc1nc(-c2c[nH]c3ncccc23)n[nH]1,> 5
14,O=C(NCc1nc(-c2ccncc2)c[nH]1)c1cccs1,≤ 5
15,O=C(NCc1nc(-c2c[nH]c3ncccc23)n[nH]1)c1ccccc1O,> 5
16,Cc1ccc([N+](=O)[O-])c(C(=O)NCc2nc(-c3ccncc3)n[nH]2)c1,> 5
17,O=C(NCc1nc(-c2c[nH]c3ncccc23)n[nH]1)c1ccc(F)cc1,> 5
18,Cc1cc(C)c(C(=O)NCc2nc(-c3c[nH]c4ncccc34)n[nH]2)c(C)c1,> 5
19,Cn1nc(-c2ccncc2)nc1CNC(=O)c1cccs1,> 5
20,O=C(NCc1nc(-c2ccncc2)n[nH]1)c1cccc(Oc2ccccc2)c1,> 5
21,O=C(NCc1nc(-c2c[nH]c3ncccc23)n[nH]1)c1ccccn1,> 5

row,Structure (SMILES),IC50 [µM]
1,CCCCc1ccc(C(=O)NCc2nc(-c3ccncc3)n[nH]2)cc1,> 5
2,CC(C)(C)c1ccc(C(=O)NCc2nc(-c3c[nH]c4ncccc34)n[nH]2)cc1,> 5
3,CC(C)(C)OC(=O)N1CCNC(C(=O)NCc2nc(-c3c[nH]c4ncccc34)n[nH]2)C1 (configuration not stated),> 5
4,CS(=O)(=O)Nc1cccc(C(=O)NCc2nc(-c3c[nH]c4ncccc34)n[nH]2)c1,≤ 5
5,O=C(NCc1nc(-c2c[nH]c3ncccc23)n[nH]1)c1ccc2c(c1)OCO2,> 5
6,COc1cc(C(=O)NCc2nc(-c3ccncc3)n[nH]2)cc(Cl)n1,> 5
7,Cc1cccc(C(=O)NCc2nc(-c3c[nH]c4ncccc34)n[nH]2)c1,> 5
8,Cc1c(Cl)ccc(S(=O)(=O)NCc2nc(-c3ccncc3)n[nH]2)c1O,> 5
9,O=C(NCc1nc(-c2ccncc2)n[nH]1)c1ccccc1C(F)(F)F,> 5
10,Cc1ccc(C(=O)NCc2nc(-c3c[nH]c4ncccc34)n[nH]2)cc1C,> 5
11,O=C(Cc1ccc(O)c(F)c1)NCc1nc(-c2ccncc2)n[nH]1,> 5
12,O=C(NCc1nnc(-c2ccnc3[nH]ccc23)o1)c1ccc(O)cc1O,≤ 5
13,COc1ccc(O)c(C(=O)NCc2nc(-c3ccncc3)n[nH]2)c1,≤ 5
14,O=C(Cc1c(F)cccc1F)NCc1nc(-c2ccncc2)n[nH]1,> 5
15,O=C(NCc1nc(-c2c[nH]c3ncccc23)n[nH]1)c1cccc2ccccc12,> 5
16,CC1=NN(c2ccc(C(=O)NCc3nc(-c4ccncc4)n[nH]3)cc2)C(=O)C1,> 5
17,CCC(=O)C(=O)NCc1nc(-c2ccncc2)n[nH]1,> 5
18,O=C(NCc1nc(-c2ccncc2)n[nH]1)C1CCc2ccccc21 (configuration not stated),> 5
19,CC(CC(=O)NCc1nc(-c2c[nH]c3ncccc23)n[nH]1)CC(C)(C)C (configuration not stated),> 5
20,O=S(=O)(NCc1nc(-c2ccncc2)n[nH]1)c1ccc(OCc2ccccc2)cc1,> 5
21,O=C(NCc1nc(-c2c[nH]c3ncccc23)n[nH]1)c1ccncc1Cl,> 5
